This assay deals with A673 Ewing sarcoma viability, CellTiter-Glo ATP luminescence, 72 h. Briefly: A673 Ewing sarcoma viability loss – cell-based, CellTiter-Glo luminescence, cherry-pick retest, confirmation (AID 720587). For orientation: Cellular ATP, detected with luciferase, serves as a proxy for viable cell number.

Structures are written as SMILES.

`CN(CCO)c1ccc(/C=N/Nc2nncc3ccccc23)cc1`: the AC35 was 19.9 µM.
On to `O=C(NCc1cccnc1)C1Cc2c(-c3ccc(Cl)cc3)ccnc2O1` (configuration not stated), for which the AC35 is 7.98 µM.
Under `CN(C)c1ccc(N=Nc2nc3ccccc3n2C)cc1` stands 8.63 µM; under `C[C@]12CC[C@H](O)C[C@H]1CC[C@@H]1[C@@H]2CC[C@]2(C)[C@@H](C3=CC(=O)OC3)CC[C@]12O`, 0.62 µM; under `C[C@@H]1CN([C@@H](C)CO)C(=O)Cc2cc(NC(=O)C3CCCCC3)ccc2O[C@H]1CN(C)Cc1ccc(C(=O)Nc2ccccc2N)cc1`, 20.8 µM.
On to `CCc1ccc2oc(C(=O)N3CCN(c4ccccc4OC)CC3)cc(=O)c2c1`, for which the AC35 was 14.3 µM.
As for `O=c1c2ccccc2nc(/C=C/c2cc(Br)ccc2O)n1CCCO`, the AC35 is 9.12 µM.
On to `Cc1ccc(C(C)C)c(OCc2ccc(C(=O)N/N=C/c3ccc(O)cc3O)cc2)c1`, for which the AC35 was 0.296 µM.
Turning to `COc1ccc([Si](C)(C)[C@H]2[C@H](CCO)O[C@@]3(C(=O)N(c4ccccc4)c4ccccc43)[C@@H]2C)cc1`, the AC35 was 7.61 µM.
In the case of `O=C(C[C@@H]1C[C@H]2c3cc(NS(=O)(=O)c4ccc(F)cc4)ccc3O[C@H]2[C@H](CO)O1)NCc1ccc(-c2ccccc2)cc1`, the AC35 was 4.21 µM.
As for `COC(=O)C[C@H]1C=C[C@@H](NC(=O)Nc2ccc(C(F)(F)F)cc2)[C@H](CO)O1`, the AC35 was 21.6 µM.
Regarding `O=c1cc(-c2ccccc2)oc2ccc3ccccc3c12`, the AC35 was 5.83 µM.
As for `CCOc1ccc(N=Nc2ccc(O)c3ncccc23)cc1`, the AC35 was 0.5 µM.
Under `C[C@H]1CN([C@@H](C)CO)S(=O)(=O)c2ccc(C#Cc3ccncc3)cc2O[C@@H]1CN(C)C(=O)Nc1ccc2c(c1)OCO2` stands 0.64 µM.
As to `CCCCCCCCCCCCCCCCn1cc[n+](C)c1`, the AC35 was 12.6 µM.
Consider `Cc1ccc(S(=O)(=O)Nc2ccc3c(c2)C(=O)N([C@@H](C)CO)C[C@@H](C)[C@@H](CN(C)Cc2ccc(C(=O)Nc4ccccc4N)cc2)O3)cc1`, for which the AC35 is 9.91 µM.
As to `C[C@@H]1CN([C@@H](C)CO)C(=O)c2cc(NC(=O)c3ccccc3)ccc2O[C@@H](C)CCCCO[C@H]1CN(C)C(=O)Nc1cccc2ccccc12`, the AC35 is 0.62 µM.
With `COc1cc(-c2coc3c(C(=O)NCc4ccc(C(F)(F)F)cc4)cccc23)ccc1O`, the AC35 was 13.7 µM.
For the compound `CC(C)=CCC/C(C)=C/CN1C(=O)N(c2ccc(F)cc2)[C@H]2C[C@@H](c3ccccc3)[C@@H](C)[C@@H](C(=O)N3CCOCC3)C[C@H]21`, the AC35 is 5.03 µM.
Turning to `Cc1nc(N)nc(N)c1-c1ccc(Cl)c(Cl)c1`, the AC35 was 0.928 µM.
With `CN1C(=O)c2cc(NC(=O)c3ccc(C(F)(F)F)cc3)ccc2OC[C@@H]2O[C@@H](CC(=O)NC3Cc4ccccc4C3)CC[C@H]21`, the AC35 is 4.43 µM.
`CC1(C)N=C(N)N=C(N)N1c1ccc(OCCCOc2ccccc2)c(Cl)c1`: the AC35 was 1.48 µM.
Regarding `CC1OC(OC2CC(O)C3(CO)C4C(O)CC5(C)C(C6=CC(=O)OC6)CCC5(O)C4CCC3(O)C2)C(O)C(O)C1O` (configuration not stated), the AC35 was 0.105 µM.
Under `CC(=O)OC1CC(OC2C(O)CC(OC3C(O)CC(OC4CCC5(C)C(CCC6C5CC(O)C5(C)C(C7=CC(=O)OC7)CCC65O)C4)OC3C)OC2C)OC(C)C1OC1OC(CO)C(O)C(O)C1O` (configuration not stated) stands 0.244 µM; under `CN1c2ccc(-c3ccc(C#N)cc3)cc2[C@H]2[C@H](CCN2S(=O)(=O)c2cccc(F)c2)[C@H]1CO`, 3.45 µM; under `C(=NNc1ccc2ccccc2n1)c1ccccn1`, 0.514 µM.
Turning to `N#C[C@H]1N[C@H](CO)[C@H]1c1ccc(C#Cc2ccc(F)cc2)cc1`, the AC35 was 20.2 µM.
As to `CCN(Cc1ccccc1)c1ccc(/C=N/N=C(N)N)cc1`, the AC35 is 6.3 µM.
Take `C[C@@H]1CN([C@H](C)CO)C(=O)c2cc(NC(=O)c3ccccc3)ccc2O[C@@H](C)CCCCO[C@H]1CN(C)C(=O)Nc1cccc2ccccc12`: the AC35 was 2.17 µM.
For the compound `O=C(O)c1ccccc1C(=O)Nc1ccc(Oc2ccc3ccccc3c2)cc1`, the AC35 was 15.6 µM.
In the case of `CCc1ccc(/C=C2\SC(=S)N(CCCC(=O)N3CCN(C)CC3)C2=O)cc1`, the AC35 is 13.1 µM.
With `O=c1[nH]c(=O)n([C@H]2C[C@H](O)[C@@H](CO)O2)cc1C(F)(F)F` the figure was 4.17 µM; with `CCCCc1c(-c2ccccc2OC)ncn1Cc1ccc(C(C)(C)C)cc1`, 11.8 µM; with `O=C1NC(=S)NC(=O)C1=Cc1cccn1-c1ccc(O)cc1`, 17.7 µM.
`CCCCc1c(Cc2ccccc2)ncn1CCc1ccccc1OC`: the AC35 is 15 µM.
Under `COc1ccc(CN(C)C[C@H]2Oc3ccc(NC(=O)CCCCCC(=O)Nc4ccccc4N)cc3CC(=O)N([C@H](C)CO)C[C@H]2C)cc1` stands 18 µM; under `C[C@H](CO)N1C[C@H](C)[C@H](CN(C)Cc2ccc(C(=O)Nc3ccccc3N)cc2)Oc2ccc(N(C)C)cc2C1=O`, 9.49 µM.
For `COc1cc(C(=O)N2CCC(N3CCN(C)CC3)CC2)ccc1Nc1ncc2c(n1)N(C)c1ccccc1C(=O)N2C`, the AC35 was 10 µM.
With `Nc1nc(N)c2cc(Sc3ccc4ccccc4c3)ccc2n1` the figure was 3.35 µM.
As for `COc1ccc(C(C)(O)c2nc(-c3cccc(F)c3)cs2)cc1` (configuration not stated), the AC35 is 9.33 µM.
`COc1ccc(N=C2C(=O)Nc3ccc(C)c(Br)c32)cc1`: the AC35 is 17 µM.
With `Cc1[nH][nH]c(=O)c1C(c1c(C)[nH][nH]c1=O)c1cn(Cc2ccc(Cl)c(Cl)c2)c2ccccc12`, the AC35 was 9.8 µM.
Regarding `COC(=O)C[C@@H]1CC[C@@H]2[C@H](COc3ccc(NC(=O)c4ccc(C(F)(F)F)cc4)cc3C(=O)N2C)O1`, the AC35 is 10.5 µM.
For `O=c1ccc2ccccc2c2ccccc12`, the AC35 was 6.04 µM.
Consider `COc1ccc(OC)c(Cc2cnc3nc(N)nc(N)c3c2C)c1`, for which the AC35 is 0.196 µM.
With `Oc1cccc(-c2nnc(-c3cccc(O)c3)nn2)c1` the figure was 11.9 µM; with `COc1cccc(Sc2ccccc2/C=N/NC(N)=O)c1`, 2.23 µM.
Take `CC(C)(C)C(=O)Cn1ncc(Cl)c(Cl)c1=O`: the AC35 is 2.73 µM.
On to `CN=c1scc(-c2cccs2)n1/N=C/c1ccccc1O`, for which the AC35 was 16.9 µM.
Consider `CC12CCC3C(CCC4(O)CC(O)CCC34C=NO)C1(O)CCC2C1=COC(=O)C1` (configuration not stated), for which the AC35 was 0.251 µM.
For `COc1cccc(OC)c1C(=O)Nc1cc(C)nn1-c1nc2ccccc2[nH]1`, the AC35 was 13.2 µM.
With `COc1ccc(/C=C2/NC(=O)N(CC(=O)Nc3cccc(C)c3)C2=O)cc1O`, the AC35 is 18.8 µM.
For the compound `CCOc1ccc(OCc2ccc(C(=O)NN=Cc3ccc[nH]3)cc2)cc1`, the AC35 was 0.667 µM.
Under `C(=Cc1c[nH]c2ccccc12)c1ccc2ccccc2n1` stands 1.16 µM; under `N#CC(C#N)=C1C=CC=CN1/C(=C\c1ccco1)C(=O)c1ccc(Cl)cc1`, 3.04 µM.
Take `CC[C@@H]1C[C@H]2CC[C@H](O2)[C@H](C)C(=O)O[C@@H](C)C[C@@H]2CC[C@@H](O2)[C@@H](C)C(=O)O[C@H](C)C[C@H]2CC[C@H](O2)[C@H](C)C(=O)O[C@@H](C)C[C@@H]2CC[C@@H](O2)[C@@H](C)C(=O)O1`: the AC35 is 0.243 µM.
Take `Cc1nn(-c2ccc(F)cc2)c2nc(N)c(C#N)c(-c3ccc(O)c(O)c3)c12`: the AC35 was 8.63 µM.
As for `O=C(NC[C@@H]1N[C@@H](CO)[C@H]1c1ccc(C2=CCCCC2)cc1)c1cccc(F)c1`, the AC35 was 11.1 µM.
As to `CC(=O)ON=C1C=CC(=C(C#N)c2ccccc2)C=C1`, the AC35 is 5.49 µM.
Consider `Nc1cc2c(cc1Br)[nH]c(=O)c1ccccc12`, for which the AC35 was 16.6 µM.
For the compound `CN(C)c1ncnc2c1ccn2C1OC(CO)C(O)C1O` (configuration not stated), the AC35 was 2.94 µM.
In the case of `COc1ccc(NC(=S)N=Nc2c(O)[nH]c3ccccc23)cc1`, the AC35 was 1.75 µM.
On to `COc1ccc(/C=C2\SC(=S)N(CCCC(=O)NNC(=O)c3ccccc3O)C2=O)cc1`, for which the AC35 was 16.8 µM.
Take `CCS(=O)(=O)N1Cc2ccccc2CC1C(=O)Nc1nnc(SCc2ccc(C#N)cc2)s1` (configuration not stated): the AC35 is 12.5 µM.
With `C[C@@H]1CN([C@@H](C)CO)C(=O)c2cc(NS(=O)(=O)c3ccc(F)cc3)ccc2O[C@@H]1CN(C)Cc1ccc(C(=O)Nc2ccccc2N)cc1` the figure was 11.3 µM.
With `C[C@@H]1CN([C@@H](C)CO)S(=O)(=O)c2ccc(C#Cc3ccncc3)cc2O[C@H]1CN(C)S(=O)(=O)c1ccccc1` the figure was 12.4 µM.
On to `O=C(c1nnsc1S(=O)c1ccc(Cl)cc1)N1CCOCC1` (configuration not stated), for which the AC35 is 5.46 µM.
For the compound `Oc1c(Cl)cc(Cl)c(Cl)c1Cc1c(O)c(Cl)cc(Cl)c1Cl`, the AC35 was 15.9 µM.
Regarding `Oc1c(Cl)cc(Cl)c2cccnc12`, the AC35 is 5.58 µM.
With `CO[C@H]1CN(C)C(=O)c2cc(NC(=O)c3ccc(Oc4ccccc4)cc3)ccc2OC[C@H](C)NC[C@@H]1C`, the AC35 is 12.3 µM.
With `CC1(C)N=C(N)N=C(N)N1c1ccc(CCCCc2ccccc2)cc1` the figure was 0.65 µM.
Regarding `O=c1[nH]c(=O)n([C@H]2C[C@H](O)[C@@H](CO)O2)cc1F`, the AC35 is 0.0545 µM.
With `O=C1NC2C(=CC(O)C(O)C2O)c2cc3c(cc21)OCO3` (configuration not stated) the figure was 0.837 µM; with `C[C@H]1O[C@@H](O[C@H]2[C@@H](O)C[C@H](O[C@H]3[C@@H](O)C[C@H](O[C@H]4CC[C@@]5(C)[C@H](CC[C@@H]6[C@@H]5C[C@@H](O)[C@]5(C)[C@@H](C7=CC(=O)OC7)CC[C@]65O)C4)O[C@@H]3C)O[C@@H]2C)C[C@H](O)[C@@H]1O`, 0.173 µM.
With `C[C@H]1CN([C@@H](C)CO)C(=O)Cc2cc(NC(=O)CCCCCC(=O)Nc3ccccc3N)ccc2O[C@H]1CN(C)Cc1ccc(C(F)(F)F)cc1`, the AC35 is 12.5 µM.
With `C[C@@H]1CCCCO[C@H](CN(C)Cc2ccc(C(=O)Nc3ccccc3N)cc2)[C@@H](C)CN([C@H](C)CO)C(=O)c2cc(NS(=O)(=O)c3ccc(F)cc3)ccc2O1` the figure was 14.1 µM; with `Nc1nc2cc3c(cc2cc1C(=O)NCCc1c[nH]c2ccccc12)OCO3`, 8.07 µM.
For the compound `Cc1c(CCOC(=O)CC23CC4CC(CC(C)(C4)C2)C3)sc[n+]1CC(=O)c1ccccc1`, the AC35 was 19.5 µM.
Consider `CCc1nc(N)nc(N)c1-c1ccc(Cl)cc1`, for which the AC35 is 8.71 µM.
For `O=C(Nc1ccc(Br)cc1)c1ccc(F)c(S(=O)(=O)N2CCN(c3ccccn3)CC2)c1`, the AC35 is 9.42 µM.
As for `Cc1cccc(/C=N/Nc2ccc3ccccc3n2)c1`, the AC35 is 18.9 µM.
`COC(=O)C[C@@H]1CC[C@H]2[C@H](COc3ccc(NC(=O)Nc4ccc(C#N)cc4)cc3C(=O)N2C)O1`: the AC35 is 11.3 µM.

The record behind these values is PubChem BioAssay AID720587 (Broad Institute, 2013).
